In US9763995B2, “Polymer conjugates of protegrin peptides” (Nektar Therapeutics, priority 2008, dated 2017):

What was measured:
[1] = Pharmacokinetic studies of the protegrin conjugates, single IV dose; type: in vivo, Sprague-Dawley rats; details: equivalent protein mass 1.6 mg/kg IV
Experimental: Twenty one (21) adult male Sprague-Dawley rats with indwelling jugular vein and carotid artery catheters (JVC/CAC) (Charles River Labs, Hollister, Calif.) were utilized for this study. The weight range of the animals was 313-346 grams. All animals were food fasted overnight. Prior to dosing the rats were weighed, the tails and cage cards were labeled for identification and the doses were calculated. Anesthesia was induced and maintained with 3.0-5.0% isoflurane. The JVC and CAC were externalized, flushed with HEP/saline (10 IU/mL HEP/mL saline), plugged, and labeled to identify the jugular vein and carotid artery The predose sample was collected from the JVC. […] Following the last collection point, the animals were euthanized. Bioanalytical analysis: analysis of the plasma samples was conducted using non-validated LC-MS/MS methods. Noncompartmental PK data analysis and report preparation was completed. PK analysis was performed using WinNonlin (Version 5.2, Mountain View, Calif.-94014). Concentrations in plasma that were below LLOQ were replaced with zeros prior to generating Tables and PK analysis. The following PK parameters were estimated using plasma concentration-time profile of each animal: • C0 Extrapolated concentration to time “zero” • Cmax Maximum (peak) concentration • AUCall Area under the concentration-time from zero to time of last concentration value • T1/2(Z) Terminal elimination half-life • AUCinf Area under the concentration-time from zero to time infinity • Tmax Time to reach maximum or peak concentration following administration • CL Total body clearance • Vz Volume of distribution based on terminal phase • Vss Volume of distribution at steady state • MRTlast Mean residence time to last observable concentration

rat red blood cells = assay: Hemolysis assay; type: cell-based
Experimental: Hemolysis assay. Approximately 10 mL of blood was drawn from one adult rat into Na Heparin tube and kept in ice until use. Red blood cells were washed three times with 10 mL of cold DPBS ((−) CaCl2 and (−) MgCl2) and collected by sequential centrifugation at 3,000 g for 5 min at 4° C. Pellets of red blood cells were resuspended with DPBS ((−) CaCl2 and (−) MgCl2) and the total volume was brought up to initial volume of blood drawn. One mL of resuspended red blood cells was resuspended with 49 mL of DPBS ((−) CaCl2 and (−) MgCl2). Incubation mixture was prepared by 400 fold dilution of stock solution of test compounds with final volume of 800 μl. Final concentration of test compounds was equimolar to that of respective unconjugated compounds. Hemolysis incubation was done at 37° C. with mild agitation. For releasable conjugates, test compounds were preincubated in 1×PBS at 37° C. prior to hemolysis assay. Incubation mixture was centrifuged at 3,000 g for 5 min at 4° C., and the absorbance at 550 nm was read from supernatant. […] [table]

[2] = non-releasable PEG conjugates, Sprague Dawley rats, Mean ± SD
[3] = protegrin-1 in plasma, rats, native or via releasable PEG conjugate

With `CC(C)C[C@H](NC(=O)[C@H](CCCNC(=N)N)NC(=O)CNC(=O)CNC(=O)[C@@H](N)CCCNC(=N)N)C(=O)N[C@H]1CSSC[C@@H](C(=O)N[C@H](C(=O)NCC(=O)N[C@@H](CCCNC(=N)N)C(N)=O)C(C)C)NC(=O)[C@H](C(C)C)NC(=O)[C@@H]2CSSC[C@H](NC(=O)[C@H](Cc3ccc(O)cc3)NC1=O)C(=O)N[C@@H](CCCNC(=N)N)C(=O)N[C@@H](CCCNC(=N)N)C(=O)N[C@@H](CCCNC(=N)N)C(=O)N[C@@H](Cc1ccccc1)C(=O)N2` [Protegrin-1] as the compound, how does the Tmax ([1]; male, Sprague-Dawley, rat, in vivo, protegrin-1 in plasma, rats, native or via releasable PEG conjugate) read?
Its Tmax is 1.8 min.

What about the AUCINF [1, 2] of the same compound?
The AUCINF was 1160 ± 351 ng·h/mL.

And the CL [1, 2]?
Its CL is 1470 ± 434^ mL/hr/kg.

What about the Cmax [1, 2] of the same compound?
Its Cmax is 2050 ± 601 ng/mL.

What about the MRTlast [1, 2] of the same compound?
Its MRTlast is 31.2 ± 3 min.

What about the T1/2 [1, 2] of the same compound?
Its T1/2 is 21 ± 6 min.

What about the Vss [1, 2] of the same compound?
The Vss was 0.848 ± 0.36 L/kg.

And the AUCINF [1, 3]?
The AUCINF was 1160 ng·h/mL.

And the Cmax [1, 3]?
Its Cmax is 2050 ng/mL.

What about the MRTlast [1, 3] of the same compound?
The MRTlast was 31.2 min.

What about the T1/2 [1, 3] of the same compound?
The T1/2 was 21 min.

What about the “hemolytic effects / hemolytic activity” value (rat red blood cells; rat red blood cells, 37° C., relative to 100% hemolysis by 0.25% Triton X-100, releasable conjugates preincubated in 1XPBS at 37° C.) of the same compound?
Its value is “comparable to literature data”.

What about the “hemolytic activity retained compared to PG1 preincubated for 0 hr” value (rat red blood cells; red cells of rat, 96 h) of the same compound?
The value was “about 60%”.
